Measurements taken from ChEMBL document CHEMBL1201862, “PubChem BioAssay data set” (2004).
Active and inactive are the calls of the source.

Key:
[1] = tested on: HeLa; assay: ATP-based viability loss in HeLa cells – cell-based, CellTiter-Glo luminescence, cherry-pick samples, cytotoxicity control for MITF activator project, dose response (AID 540259); assay type: functional; conditions: Homo sapiens
[2] = target: T1, Microphthalmia-associated transcription factor (Homo sapiens, UniProt O75030); assay: reducers of TRPM1 reporter luminescence, concentration series – cell-based, SK-MEL-5, cherry-picked, set 3, MITF inhibitor project, dose response (AID 493073); assay type: functional;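 also: SK-MEL-5 melanoma cells with luciferase driven by the MITF target TRPM1 promoter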
T1 sequence (O75030 whole entry): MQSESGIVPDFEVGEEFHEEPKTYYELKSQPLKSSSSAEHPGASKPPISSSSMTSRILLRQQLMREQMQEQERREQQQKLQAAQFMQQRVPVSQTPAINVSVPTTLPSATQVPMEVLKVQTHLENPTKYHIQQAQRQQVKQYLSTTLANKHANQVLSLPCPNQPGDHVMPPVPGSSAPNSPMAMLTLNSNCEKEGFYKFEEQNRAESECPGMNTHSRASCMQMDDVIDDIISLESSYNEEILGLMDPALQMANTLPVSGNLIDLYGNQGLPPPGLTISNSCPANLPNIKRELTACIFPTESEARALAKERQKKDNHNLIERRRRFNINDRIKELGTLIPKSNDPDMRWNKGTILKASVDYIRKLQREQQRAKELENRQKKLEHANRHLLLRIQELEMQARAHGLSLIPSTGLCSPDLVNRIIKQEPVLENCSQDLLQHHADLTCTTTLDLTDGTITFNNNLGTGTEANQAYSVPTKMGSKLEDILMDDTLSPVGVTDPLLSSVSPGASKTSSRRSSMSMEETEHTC

[3] = tested on: A-375; assay: MITF: Counter assay: A375 proliferation Measured in Cell-Based System Using Plate Reader - 2084-03_Inhibitor_Dose_DryPowder_Activity. [Related pubchem assays (depositor defined):AID488944]; assay type: functional; conditions: Homo sapiens
[4] = target: T2, Protein Tat (Human immunodeficiency virus type 1 group M subtype B (isolate HXB2)(HIV-1), UniProt P04608); assay type: functional;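 also: tat binding to TAR RNA read out by fluorescence polarization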
T2 sequence (P04608 whole entry): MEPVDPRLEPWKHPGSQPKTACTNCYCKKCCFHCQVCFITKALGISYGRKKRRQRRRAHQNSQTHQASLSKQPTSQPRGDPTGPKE

[5] = viability loss in THP-1 monocytes – THP-1 cells, cytotoxicity control for Vif-APOBEC3G degradation inhibitor project, dose response (AID 1117359); assay type: functional; conditions: THP-1
[6] = target: T3, Bcl-2-related protein A1 (Mus musculus, UniProt Q07440); assay type: functional;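 also: confirmatory dose–response counterscreen on Bfl-1, used to check hits from a UBC13 polyubiquitin inhibitor campaign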
T3 sequence (Q07440 whole entry): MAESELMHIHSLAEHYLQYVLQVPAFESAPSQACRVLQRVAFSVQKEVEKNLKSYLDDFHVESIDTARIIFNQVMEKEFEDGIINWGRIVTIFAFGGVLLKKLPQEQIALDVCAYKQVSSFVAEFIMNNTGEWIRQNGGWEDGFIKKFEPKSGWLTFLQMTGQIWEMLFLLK

[7] = target: T4, Ubiquitin-conjugating enzyme E2 N (Homo sapiens, UniProt P61088); assay type: functional
T4 sequence (P61088 whole entry): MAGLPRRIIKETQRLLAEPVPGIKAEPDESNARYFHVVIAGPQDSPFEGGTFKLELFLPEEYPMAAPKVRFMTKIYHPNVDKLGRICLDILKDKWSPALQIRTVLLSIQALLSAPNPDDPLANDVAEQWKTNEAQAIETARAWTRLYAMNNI

[8] = target: T4, Ubiquitin-conjugating enzyme E2 N; assay type: functional; remark: listed apart in the source
[9] = activation of miR-122 Renilla sensor silencing – cell-based, Huh7 psiCHECK-miR122, Renilla luciferase, cherry-picked, dose response (AID 651956); assay type: functional;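 also: huh7 hepatoma cells stably carrying a psiCHECK-2 miR-122 sensor plasmid; renilla luciferase signal reporting endogenous miR-122 activity after 48 h compound exposure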
[10] = target: T5, DNA repair and recombination protein RAD54-like (Homo sapiens, UniProt Q92698); assay: RAD54 Holliday junction migration blockers – biochemical, fluorescence, cherry-picked samples, dose series, confirmation (AID 651657); assay type: functional
T5 sequence (Q92698 whole entry): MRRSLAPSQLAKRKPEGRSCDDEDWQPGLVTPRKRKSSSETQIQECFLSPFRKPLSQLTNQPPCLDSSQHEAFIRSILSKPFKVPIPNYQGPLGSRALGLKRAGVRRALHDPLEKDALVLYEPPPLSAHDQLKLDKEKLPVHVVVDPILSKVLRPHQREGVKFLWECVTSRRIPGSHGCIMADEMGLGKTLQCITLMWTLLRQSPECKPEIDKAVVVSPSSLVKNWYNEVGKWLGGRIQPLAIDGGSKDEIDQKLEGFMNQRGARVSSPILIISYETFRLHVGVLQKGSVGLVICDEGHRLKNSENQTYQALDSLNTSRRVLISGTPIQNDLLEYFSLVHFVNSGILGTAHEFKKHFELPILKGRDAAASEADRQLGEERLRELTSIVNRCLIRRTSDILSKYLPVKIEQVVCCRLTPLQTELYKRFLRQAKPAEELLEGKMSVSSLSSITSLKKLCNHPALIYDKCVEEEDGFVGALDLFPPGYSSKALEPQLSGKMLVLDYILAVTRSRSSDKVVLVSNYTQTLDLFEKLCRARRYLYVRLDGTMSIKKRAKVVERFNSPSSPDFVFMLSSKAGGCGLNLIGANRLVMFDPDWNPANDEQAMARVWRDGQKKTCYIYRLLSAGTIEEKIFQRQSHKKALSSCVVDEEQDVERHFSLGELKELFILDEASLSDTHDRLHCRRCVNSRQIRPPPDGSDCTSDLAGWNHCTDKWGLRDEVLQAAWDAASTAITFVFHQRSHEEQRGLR

[11] = target: T6, Carboxy-terminal domain RNA polymerase II polypeptide A small phosphatase 1 (Homo sapiens, UniProt Q9GZU7); assay: CTDSP1 inhibitors, concentration-response, biochemical, absorbance readout, ultra-high-throughput screen actives (AID 540297); assay type: functional
T6 sequence (Q9GZU7 whole entry): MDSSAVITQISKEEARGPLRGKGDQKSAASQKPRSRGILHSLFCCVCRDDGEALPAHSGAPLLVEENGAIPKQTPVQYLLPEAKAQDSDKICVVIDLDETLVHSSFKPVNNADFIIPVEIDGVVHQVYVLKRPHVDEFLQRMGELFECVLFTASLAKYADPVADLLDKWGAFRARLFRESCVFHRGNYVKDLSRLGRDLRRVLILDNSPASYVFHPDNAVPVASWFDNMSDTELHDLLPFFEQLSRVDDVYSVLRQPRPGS

[12] = tested on: HEK293; assay: cells; conditions: Homo sapiens;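 also: cells exposed to compound for 14 hours overnight before viability readout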
[13] = target: Cytochrome P450 2D6 (Homo sapiens, UniProt P10635);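 also: CYP2D6 member of a cytochrome P450 panel assay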
Sequence of Cytochrome P450 2D6 (P10635 whole entry): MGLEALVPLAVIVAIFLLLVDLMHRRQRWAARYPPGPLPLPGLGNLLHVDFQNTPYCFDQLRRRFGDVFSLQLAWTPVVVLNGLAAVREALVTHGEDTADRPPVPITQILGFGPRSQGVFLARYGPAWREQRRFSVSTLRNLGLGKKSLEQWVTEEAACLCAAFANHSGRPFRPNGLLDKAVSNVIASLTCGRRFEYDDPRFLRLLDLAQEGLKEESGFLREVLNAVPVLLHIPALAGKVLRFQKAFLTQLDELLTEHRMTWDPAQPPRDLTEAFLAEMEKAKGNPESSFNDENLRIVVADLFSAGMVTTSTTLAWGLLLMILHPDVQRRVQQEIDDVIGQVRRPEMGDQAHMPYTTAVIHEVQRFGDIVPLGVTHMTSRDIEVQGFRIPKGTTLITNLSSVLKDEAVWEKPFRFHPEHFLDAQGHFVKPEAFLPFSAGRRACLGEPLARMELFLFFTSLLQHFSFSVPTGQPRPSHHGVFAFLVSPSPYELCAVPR

For `O=C(Nc1ccc(-c2nc3cccnc3s2)cc1)c1ccc(Cl)nc1`, the AC50 [1] was 201 µM (active).
With `CC(=O)N(\C=C/C=C/C=C1\Sc2ccccc2C1=O)c1ccccc1` the AC50 [2] was 8 µM (active), the AC50 [3] was 50.7 µM (active) and the IC50 [4] was > 100 µM (active). For the same compound, the CC50 [5] was > 40 µM (active).
In the case of `C=CCc1ccccc1OCC(O)CN1CCN(CCN2C(=O)c3cccc4cccc(c34)C2=O)CC1` (centres undefined), the IC50 [6] is reported as > 20 µM (inactive), the IC50 [7] is reported as 17.2 µM (active) and the IC50 [8] is reported as 17.7 µM (active). The AC50 [9] was 8.26 µM (active) and the AC50 [10] was 9.3 µM (active).
In the case of `O=C(CSc1nc2sc3c(c2c(=O)n1-c1ccccc1)CCCC3)N/N=C/c1ccccc1C(=O)O`, the IC50 [11] is reported as 9.27 µM (active).
For `COc1cc(NC(=O)c2ccc3c(c2)C(=O)N(CCC(C)C)C3=O)c(C(=O)O)cc1OC`, the IC50 [11] was 7.04 µM (active).
With `CC(C)(C)c1ccc(C(=O)O/N=C(\N)c2cccc([N+](=O)[O-])c2)cc1` the IC50 [12] was > 20 µM (inactive).
With `CCOC(=S)SCC(=O)O` the AC50 [13] was “inconclusive”.
